# Results: PMC10177926, “Leveraging the 3-Chloro-4-fluorophenyl Motif to Identify Inhibitors of Tyrosinase from Agaricus bisporus” (International Journal of Molecular Sciences, 2023)
# Target: tyrosinase from Agaricus bisporus (AbTYR) (Agaricus bisporus, UniProt C7FF04)
# Test: diphenolase inhibition of AbTYR (L-DOPA substrate, absorbance at 475 nm)
# Type: biochemical
# Details: diphenolase activity
# Experimental: Mushroom tyrosinase (EC 1.14.18.1) was supplied by Merck (Cat. No. T3824). In vitro assay was performed according to the method of Mirabile et al.. Each sample (0.05 mL) at different concentrations (0.10–200 μM) was mixed with 0.5 mL of L-DOPA solution (1.25 mM) and 0.9 mL of phosphate buffer solution (pH 6.8). After a 10 min incubation at 25 °C, 0.05 mL of an aqueous solution of the enzyme was added to the mixture. […] The inhibition rate was calculated with the following mathematical equation:Inhibition % = (A − B/A) × 100 where A = absorbance of negative control and B = absorbance of test sample. Finally, IC50 values were determined by interpolation of the dose–response curves.
# tyrosinase from Agaricus bisporus (AbTYR), sequence (C7FF04 2-392): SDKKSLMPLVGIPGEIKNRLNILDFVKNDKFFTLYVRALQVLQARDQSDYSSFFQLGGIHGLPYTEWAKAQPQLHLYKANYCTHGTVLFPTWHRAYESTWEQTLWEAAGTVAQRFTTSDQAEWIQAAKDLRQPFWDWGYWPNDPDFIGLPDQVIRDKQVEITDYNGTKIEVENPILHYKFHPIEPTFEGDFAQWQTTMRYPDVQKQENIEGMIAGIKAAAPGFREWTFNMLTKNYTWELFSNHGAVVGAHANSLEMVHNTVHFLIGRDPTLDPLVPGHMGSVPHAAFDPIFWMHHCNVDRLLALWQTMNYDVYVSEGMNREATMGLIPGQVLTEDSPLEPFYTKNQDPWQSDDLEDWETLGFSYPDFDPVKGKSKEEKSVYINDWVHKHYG
row,Compound,"AbTYR inhibitory effect, result in words"
1,"Nn1c(SCc2ccc(F)cc2Cl)nnc1-c1ccncc1 [3c, 3-((2-Chloro-4-fluorobenzyl)thio)-5-(pyridin-4-yl)-4H-1,2,4-triazol-4-amine]",inhibitory effects dramatically disappeared

# Tested on: not given
# Test: not given
# Details: not given
row,Compound,melting point [°C]
1,"O=C(c1ccc(Cl)cc1Cl)N1CCN(Cc2ccc(F)c(Cl)c2)CC1 [1d, (4-(3-Chloro-4-fluorobenzyl)piperazin-1-yl)(2,4-dichlorophenyl)methanone]",121 to 124
2,"O=C(c1cc(F)ccc1C(F)(F)F)N1CCN(Cc2ccc(F)c(Cl)c2)CC1 [1e, (4-(3-Chloro-4-fluorobenzyl)piperazin-1-yl)(5-fluoro-2-(trifluoromethyl)phenyl)methanone]",133 to 135
3,"O=C(c1cc2ccccc2s1)N1CCN(Cc2ccc(F)c(Cl)c2)CC1 [1f, Benzo[b]thiophen-2-yl(4-(3-chloro-4-fluorobenzyl)piperazin-1-yl)methanone]",111 to 113

# More lines, now with the values ahead:
row,melting point [°C],Compound
1,165 to 168,"O=C(CN1CCN(Cc2ccc(F)c(Cl)c2)CC1)N1CCN(c2ccc(O)cc2)CC1 [2c, 2-(4-(3-Chloro-4-fluorobenzyl)piperazin-1-yl)-1-(4-(4-hydroxyphenyl)piperazin-1-yl)ethanone]"
2,172 to 174,"CC(C(=O)N1CCN(c2ccc(O)cc2)CC1)N1CCN(Cc2ccc(F)c(Cl)c2)CC1 (stereo not shown) [2d, 2-(4-(3-Chloro-4-fluorobenzyl)piperazin-1-yl)-1-(4-(4-hydroxyphenyl)piperazin-1-yl)propan-1-one]"
3,164 to 165,"Nn1c(SCc2ccc(F)c(Cl)c2)nnc1-c1ccncc1 [3b, 3-(3-Chloro-4-fluorobenzylthio)-5-(pyridin-4-yl)-4H-1,2,4-triazol-4-amine]"
4,171 to 172,"Nn1c(SCc2ccc(F)cc2Cl)nnc1-c1ccncc1 [3c, 3-((2-Chloro-4-fluorobenzyl)thio)-5-(pyridin-4-yl)-4H-1,2,4-triazol-4-amine]"
5,164 to 166,"Nn1c(SCc2ccc(F)c(Cl)c2)nnc1-c1ccccc1 [3d, 3-(3-Chloro-4-fluorobenzylthio)-5-phenyl-4H-1,2,4-triazol-4-amine]"
6,34 to 35,"c1ccc(SCSc2ccccc2)cc1 [4b, Phenylsulfanylmethylsulfanylbenzene]"
